Where two headings read alike, the source gives them in different places.
Experiments:
Type in all cases: in vivo
[1] = Trough plasma concentrations of Compound A in the human clinical study; details: for concentration at 2 week / concentration at 4 week / concentration at 8 week / concentration at 12 week: human, plasma, oral, human plasma
Procedure: (§1) Compound A was evaluated in a multicenter, randomized, double-blind, placebo-controlled, parallel-group study in subjects with active rheumatoid arthritis. Subjects were randomized to receive orally placebo or an amount of monohydrochloride Compound A sufficient to provide 50 mg, 100 mg, 150 mg, or 200 mg of free form, once daily for 12 weeks.
In the human clinical study described in Example 3, blood samples were collected from subjects prior to dosing at weeks 2, 4, 8, and 12 for the quantification of plasma Compound A levels.

[2] = tested on: subjects with active rheumatoid arthritis; experiment: Adverse events in rheumatoid arthritis human clinical trial
Procedure: as §1
The incidence of serious adverse events (SAEs) and severe treatment-emergent adverse events (TEAEs) in the clinical study was low (3.4% and 2.9%, respectively) in subjects who received treatment with one of the doses of Compound A in the clinical study.

[3] = tested on: CYP-induced cystitis model mice; experiment: Mouse cyclophosphamide (CYP)-induced cystitis model, lower abdominal licking time; details: 3, 6 or 10 mg/mL solutions at 10 mL/kg oral once per day Days 7-9
Procedure: The inhibitory effect of Compound A on lower abdominal licking time was evaluated in a mouse CYP-induced cystitis model. The evaluation was performed according to M. Fujita et al., Eur J Pain. 20 (2016) 79-91. Male C57BL/6J mice (Charles River Laboratories Japan, Inc.) were used as the experimental animals.
Once per day for four days (Days 1-4) 20 mg/mL of CYP (Sigma) dissolved in saline solution was intraperitoneally administered to a vehicle group, a Compound A administration group, and an anti-NGF antibody group at a volume of 10 mL/kg, and saline solution was intraperitoneally administered to a sham group at a volume of 10 mL/kg. A monohydrochloride of Compound A was dissolved in 0.5% methyl cellulose (MC) to prepare 3 mg/mL, 6 mg/mL, and 10 mg/mL solutions of Compound A. […]
The behavior of the mice was recorded for 90 minutes using a video camera prior to the initial administration of CYP (Pre) and on Day 7, Day 8, and Day 10, and the lower abdominal licking time (seconds) was measured. […] The mean values of the licking times of the individual animals were calculated for each group, and the results are shown in FIG. 11.

[4] = subjects who received one of the doses (50-200 mg once daily, 12 weeks)

Trough concentration, mean ratio relative to Compound A 50 mg QD at the same visit ([1]; 50 mg QD, 2 week): 1.00 | Trough concentration, mean ratio relative to Compound A 50 mg QD at the same visit ([1]; 50 mg QD, 4 week): 1.00 | Trough concentration, mean ratio relative to Compound A 50 mg QD at the same visit ([1]; 50 mg QD, 8 week): 1.00 | Trough concentration, mean ratio relative to Compound A 50 mg QD at the same visit ([1]; 50 mg QD, 12 week): 1.00 | Trough concentration, mean ratio relative to Compound A 50 mg QD at the same visit ([1]; 100 mg QD, 2 week): 1.52 | Trough concentration, mean ratio relative to Compound A 50 mg QD at the same visit ([1]; 100 mg QD, 4 week): 1.60 | Trough concentration, mean ratio relative to Compound A 50 mg QD at the same visit ([1]; 100 mg QD, 8 week): 1.77 | Trough concentration, mean ratio relative to Compound A 50 mg QD at the same visit ([1]; 100 mg QD, 12 week): 1.50 | Trough concentration, mean ratio relative to Compound A 50 mg QD at the same visit ([1]; 150 mg QD, 2 week): 2.51 | Trough concentration, mean ratio relative to Compound A 50 mg QD at the same visit ([1]; 150 mg QD, 4 week): 2.28 | Trough concentration, mean ratio relative to Compound A 50 mg QD at the same visit ([1]; 150 mg QD, 8 week): 2.10 | Trough concentration, mean ratio relative to Compound A 50 mg QD at the same visit ([1]; 150 mg QD, 12 week): 2.63 | Trough concentration, mean ratio relative to Compound A 50 mg QD at the same visit ([1]; 200 mg QD, 2 week): 3.89 | Trough concentration, mean ratio relative to Compound A 50 mg QD at the same visit ([1]; 200 mg QD, 4 week): 3.33 | Trough concentration, mean ratio relative to Compound A 50 mg QD at the same visit ([1]; 200 mg QD, 8 week): 3.11 | Trough concentration, mean ratio relative to Compound A 50 mg QD at the same visit ([1]; 200 mg QD, 12 week): 2.98 | concentration at 2 week ([1]; 50 mg, 50 mg QD, 2 week, BLQ (<2.00 ng/mL) set to 0, read-out: Trough Plasma Concentrations, Min-Max): 0 to 387 ng/mL | concentration at 2 week ([1]; 50 mg, 50 mg QD, 2 week, read-out: Trough Plasma Concentrations, Mean (SD)): 134 ng/mL | concentration at 2 week ([1]; 50 mg, 50 mg QD, 2 week, read-out: Trough Plasma Concentrations, Median): 118 ng/mL | concentration at 4 week ([1]; 50 mg, 50 mg QD, 4 week, BLQ (<2.00 ng/mL) set to 0, read-out: Trough Plasma Concentrations, Min-Max): 0 to 356 ng/mL | concentration at 4 week ([1]; 50 mg, 50 mg QD, 4 week, read-out: Trough Plasma Concentrations, Mean (SD)): 135 ng/mL | concentration at 4 week ([1]; 50 mg, 50 mg QD, 4 week, read-out: Trough Plasma Concentrations, Median): 119 ng/mL | concentration at 8 week ([1]; 50 mg, 50 mg QD, 8 week, BLQ (<2.00 ng/mL) set to 0, read-out: Trough Plasma Concentrations, Min-Max): 0 to 436 ng/mL | concentration at 8 week ([1]; 50 mg, 50 mg QD, 8 week, read-out: Trough Plasma Concentrations, Mean (SD)): 129 ng/mL | concentration at 8 week ([1]; 50 mg, 50 mg QD, 8 week, read-out: Trough Plasma Concentrations, Median): 108 ng/mL | concentration at 12 week ([1]; 50 mg, 50 mg QD, 12 week, BLQ (<2.00 ng/mL) set to 0, read-out: Trough Plasma Concentrations, Min-Max): 0 to 531 ng/mL | concentration at 12 week ([1]; 50 mg, 50 mg QD, 12 week, read-out: Trough Plasma Concentrations, Mean (SD)): 119 ng/mL | concentration at 12 week ([1]; 50 mg, 50 mg QD, 12 week, read-out: Trough Plasma Concentrations, Median): 100 ng/mL | concentration at 2 week ([1]; 100 mg, 100 mg QD, 2 week, BLQ (<2.00 ng/mL) set to 0, read-out: Trough Plasma Concentrations, Min-Max): 0 to 825 ng/mL | concentration at 2 week ([1]; 100 mg, 100 mg QD, 2 week, read-out: Trough Plasma Concentrations, Mean (SD)): 204 ng/mL | concentration at 2 week ([1]; 100 mg, 100 mg QD, 2 week, read-out: Trough Plasma Concentrations, Median): 191 ng/mL | concentration at 4 week ([1]; 100 mg, 100 mg QD, 4 week, BLQ (<2.00 ng/mL) set to 0, read-out: Trough Plasma Concentrations, Min-Max): 0 to 650 ng/mL | concentration at 4 week ([1]; 100 mg, 100 mg QD, 4 week, read-out: Trough Plasma Concentrations, Mean (SD)): 216 ng/mL | concentration at 4 week ([1]; 100 mg, 100 mg QD, 4 week, read-out: Trough Plasma Concentrations, Median): 215 ng/mL | concentration at 8 week ([1]; 100 mg, 100 mg QD, 8 week, BLQ (<2.00 ng/mL) set to 0, read-out: Trough Plasma Concentrations, Min-Max): 0 to 785 ng/mL | concentration at 8 week ([1]; 100 mg, 100 mg QD, 8 week, read-out: Trough Plasma Concentrations, Mean (SD)): 228 ng/mL | concentration at 8 week ([1]; 100 mg, 100 mg QD, 8 week, read-out: Trough Plasma Concentrations, Median): 194 ng/mL | concentration at 12 week ([1]; 100 mg, 100 mg QD, 12 week, BLQ (<2.00 ng/mL) set to 0, read-out: Trough Plasma Concentrations, Min-Max): 0 to 728 ng/mL | concentration at 12 week ([1]; 100 mg, 100 mg QD, 12 week, read-out: Trough Plasma Concentrations, Mean (SD)): 178 ng/mL | concentration at 12 week ([1]; 100 mg, 100 mg QD, 12 week, read-out: Trough Plasma Concentrations, Median): 175 ng/mL | concentration at 2 week ([1]; 150 mg, 150 mg QD, 2 week, BLQ (<2.00 ng/mL) set to 0, read-out: Trough Plasma Concentrations, Min-Max): 1.47 to 1110 ng/mL | concentration at 2 week ([1]; 150 mg, 150 mg QD, 2 week, read-out: Trough Plasma Concentrations, Mean (SD)): 335 ng/mL | concentration at 2 week ([1]; 150 mg, 150 mg QD, 2 week, read-out: Trough Plasma Concentrations, Median): 300 ng/mL | concentration at 4 week ([1]; 150 mg, 150 mg QD, 4 week, BLQ (<2.00 ng/mL) set to 0, read-out: Trough Plasma Concentrations, Min-Max): 0 to 748 ng/mL | concentration at 4 week ([1]; 150 mg, 150 mg QD, 4 week, read-out: Trough Plasma Concentrations, Mean (SD)): 309 ng/mL | concentration at 4 week ([1]; 150 mg, 150 mg QD, 4 week, read-out: Trough Plasma Concentrations, Median): 277 ng/mL | concentration at 8 week ([1]; 150 mg, 150 mg QD, 8 week, BLQ (<2.00 ng/mL) set to 0, read-out: Trough Plasma Concentrations, Min-Max): 0 to 743 ng/mL | concentration at 8 week ([1]; 150 mg, 150 mg QD, 8 week, read-out: Trough Plasma Concentrations, Mean (SD)): 272 ng/mL | concentration at 8 week ([1]; 150 mg, 150 mg QD, 8 week, read-out: Trough Plasma Concentrations, Median): 277 ng/mL | concentration at 12 week ([1]; 150 mg, 150 mg QD, 12 week, BLQ (<2.00 ng/mL) set to 0, read-out: Trough Plasma Concentrations, Min-Max): 0 to 992 ng/mL | concentration at 12 week ([1]; 150 mg, 150 mg QD, 12 week, read-out: Trough Plasma Concentrations, Mean (SD)): 312 ng/mL | concentration at 12 week ([1]; 150 mg, 150 mg QD, 12 week, read-out: Trough Plasma Concentrations, Median): 246 ng/mL | concentration at 2 week ([1]; 200 mg, 200 mg QD, 2 week, BLQ (<2.00 ng/mL) set to 0, read-out: Trough Plasma Concentrations, Min-Max): 5.01 to 2210 ng/mL | concentration at 2 week ([1]; 200 mg, 200 mg QD, 2 week, read-out: Trough Plasma Concentrations, Mean (SD)): 521 ng/mL | concentration at 2 week ([1]; 200 mg, 200 mg QD, 2 week, read-out: Trough Plasma Concentrations, Median): 436 ng/mL | concentration at 4 week ([1]; 200 mg, 200 mg QD, 4 week, BLQ (<2.00 ng/mL) set to 0, read-out: Trough Plasma Concentrations, Min-Max): 0 to 1570 ng/mL | concentration at 4 week ([1]; 200 mg, 200 mg QD, 4 week, read-out: Trough Plasma Concentrations, Mean (SD)): 450 ng/mL | concentration at 4 week ([1]; 200 mg, 200 mg QD, 4 week, read-out: Trough Plasma Concentrations, Median): 402 ng/mL | concentration at 8 week ([1]; 200 mg, 200 mg QD, 8 week, BLQ (<2.00 ng/mL) set to 0, read-out: Trough Plasma Concentrations, Min-Max): 0 to 1660 ng/mL | concentration at 8 week ([1]; 200 mg, 200 mg QD, 8 week, read-out: Trough Plasma Concentrations, Mean (SD)): 402 ng/mL | concentration at 8 week ([1]; 200 mg, 200 mg QD, 8 week, read-out: Trough Plasma Concentrations, Median): 392 ng/mL | concentration at 12 week ([1]; 200 mg, 200 mg QD, 12 week, BLQ (<2.00 ng/mL) set to 0, read-out: Trough Plasma Concentrations, Min-Max): 0 to 1170 ng/mL | concentration at 12 week ([1]; 200 mg, 200 mg QD, 12 week, read-out: Trough Plasma Concentrations, Mean (SD)): 354 ng/mL | concentration at 12 week ([1]; 200 mg, 200 mg QD, 12 week, read-out: Trough Plasma Concentrations, Median): 323 ng/mL
SMILES: C[C@@H](C(=O)N(C)c1ccc2cc(-c3n[nH]c4c3CCC(C)(C)C4)[nH]c2c1)N1CCOCC1 [Compound A, N-[2-(6,6-dimethyl-4,5,6,7-tetrahydro-1H-indazol-3-yl)-1H-indol-6-yl]-N-methyl-(2S)-2-(morpholin-4-yl)propanamide]
dose dependence and maintenance of mean trough concentrations ([1]; 50 mg to 200 mg once daily, weeks 2-12): Mean trough concentrations increased as dose increased from 50 mg to 200 mg and trough concentrations were maintained throughout the study | safety and tolerability ([2]; doses up to 200 mg over 12 weeks of treatment): safe and tolerated | incidence of serious adverse events (SAEs) [2, 4]: 3.4% | incidence of severe treatment-emergent adverse events (TEAEs) [2, 4]: 2.9% | lower abdominal licking time [3]: reduced lower abdominal licking time
